Test results from patent publication US9090600B2, “Fungicidal 4-substituted-3-{phenyl[(heterocyclylmethoxy)imino]methyl}-1,2,4-oxadizol-5(4H)-one derivatives” (BAYER INTELLECTUAL PROPERTY GMBH, priority 2011, dated 2015).
Marks after values point to notes of the source that are not given here.

Details: pH 2.7

SMILES | LogP
Cc1cccc(/C(=N/OCc2cccc(NC(=O)c3cccc(F)c3)n2)c2noc(=O)n2C)c1 [Example 391] | 3.99 [a]
Cn1c(/C(=N\OCc2cccc(NC(=O)OC(C)(C)C(Cl)(Cl)Cl)n2)c2ccccc2)noc1=O [compound 445] | 4.91 [a]
COc1cccc(OC(C)C(=O)Nc2cccc(CO/N=C(/c3ccccc3)c3noc(=O)n3C)n2)c1 (stereo not shown) [Example 69] | 3.97 [a]
Cn1c(/C(=N\OCc2cccc(NC(=O)OCc3ccncc3)n2)c2ccccc2)noc1=O [compound 411] | 2.01 [a]
Cn1c(/C(=N\OCc2cccc(NC(=O)OCc3ccccc3Cl)n2)c2ccccc2)noc1=O [compound 413] | 4.34 [a]
Cn1c(/C(=N\OCc2cccc(NC(=O)OC[Si](C)(C)C)n2)c2ccccc2)noc1=O [compound 440] | 4.53 [a]
C#CCCOC(=O)Nc1cccc(CO/N=C(/c2ccccc2)c2noc(=O)[nH]2)n1 [Example 22] | 3.09 [a]
CCCCSC(=S)Nc1cccc(CO/N=C(/c2ccccc2)c2noc(=O)n2C)n1 [Example 385] | 4.8 [a]
Cn1c(/C(=N\OCc2cccc(NC(=O)COc3ccccc3F)n2)c2ccccc2)noc1=O [Example 125] | 3.76 [a]
C#CC(C)OC(=O)Nc1cccc(CO/N=C(/c2ccccc2)c2noc(=O)n2C)n1 (stereo not shown) [Example 242] | 3.41 [a]
Cn1c(/C(=N\OCc2cccc(NC(=O)COC3CCCC3)n2)c2ccccc2)noc1=O [Example 94] | 4.04 [a]
CC(C)OC(=O)Nc1cccc(CO/N=C(/c2ccccc2)c2noc(=O)n2C)n1 [compound 427] | 3.55 [a]
Cn1c(/C(=N\OCc2cccc(NC(=O)OCC#Cc3ccccc3)n2)c2ccccc2)noc1=O [compound 468] | 4.25 [a]
CCCCC(CC)COC(=O)Nc1cccc(CO/N=C(/c2ccccc2)c2noc(=O)n2C)n1 (racemic) [compound 463] | 5.54 [a]
Cc1cccc(OCC(=O)Nc2cccc(CO/N=C(/c3ccccc3)c3noc(=O)n3C)n2)c1 [Example 334] | 4.07 [a]
Cn1c(/C(=N\OCc2cccc(NC(=O)OCCOc3ccccc3)n2)c2ccccc2)noc1=O [compound 456] | 3.94 [a]
Cn1c(/C(=N\OCc2cccc(NC(=O)OCc3cccs3)n2)c2ccccc2)noc1=O [compound 527] | 3.83 [a]
COc1ccccc1C(=O)Nc1cccc(CO/N=C(/c2ccccc2)c2noc(=O)n2C)n1 [Example 181] | 3.87 [a]
C#CCCOC(=O)Nc1cccc(CO/N=C(/c2ccccc2F)c2noc(=O)n2C)n1 [Example 525] | 3.21 [a]
Cc1ccccc1COC(=O)Nc1cccc(CON=C(c2ccccc2)c2noc(=O)n2C)n1 [compound 487] | 4.29 [a]
CC(Oc1ccc(Br)cc1)C(=O)Nc1cccc(CO/N=C(/c2ccccc2)c2noc(=O)n2C)n1 (stereo not shown) [Example 204] | 4.46 [a]
Cn1c(/C(=N\OCc2cccc(NC(=O)c3ccccc3Oc3ccccc3)n2)c2ccccc2)noc1=O [Example 294] | 4.76 [a]
COc1cccc(C(=NOCc2cccc(N)n2)C(N)=NO)c1 (mixture of isomers) [Example V-6] | 0.58 [a]
Cc1cccc(C(=NOCc2cccc(N)n2)C(N)=NO)c1 (mixture of isomers) [Example V-7] | 0.75 [a]
CCOC(=O)Nc1cccc(CO/N=C(/c2ccccc2)c2noc(=O)n2C)n1 [compound 421] | 3.21 [a]
Nc1cccc(CON=C(c2cccc(F)c2)c2noc(=O)[nH]2)n1 [Example 129] | 1.35 [a]

SMILES | LogP
Cn1c(/C(=N\OCc2cccc(NC(=O)OCC3COC(=O)O3)n2)c2ccccc2)noc1=O (racemic) [compound 474] | 2.75 [a]
CC(OC(=O)Nc1cccc(CON=C(c2ccccc2)c2noc(=O)n2C)n1)C1CCCCC1 (stereo not shown) [compound 485] | 5.25 [a]
Cn1c(/C(=N\OCc2cccc(NC(=O)OCc3ccc([N+](=O)[O-])cc3)n2)c2ccccc2)noc1=O [compound 476] | 3.83 [a]
CCCCCOC(=O)Nc1nc(CO/N=C(/c2ccccc2Cl)c2noc(=O)n2C)cs1 [Example 530] | 4.25 [a]
Cn1c(/C(=N\OCc2cccc(NC(=O)OCC(Cl)(Cl)Cl)n2)c2ccccc2)noc1=O [compound 536] | 4.15 [a]
Cn1c(/C(=N\OCc2csc(NC(=O)COc3ccccc3F)n2)c2ccccc2)noc1=O [Example 28] | 3.51 [a]
Cn1c(/C(=N\OCc2csc(NC(=O)COc3ccccc3Br)n2)c2ccccc2)noc1=O [Example 159] | 3.89 [a]
CCCCC(=O)Nc1cccc(CO/N=C(/c2cccc(F)c2F)c2noc(=O)n2C)n1 [Example 420] | 3.55 [a]
COc1ccc(/C(=N/OCc2cccc(N)n2)c2noc(=O)n2C)cc1 [Example 157] | 1.35 [a]
CCCCC(=O)Nc1nc(CO/N=C(/c2ccc(C)cc2)c2noc(=O)n2C)cs1 [Example 169] | 3.7 [a]
Cn1c(/C(=N\OCc2csc(NC(=O)Cc3ccccc3)n2)c2cccc(F)c2)noc1=O [Example 203] | 3.46 [a]
Cn1c(/C(=N\OCc2cccc(NC(=O)OCC#C[Si](C)(C)C)n2)c2ccccc2)noc1=O [compound 443] | 4.63 [a]
Cc1cccc(OCC(=O)Nc2nc(CO/N=C(/c3ccccc3)c3noc(=O)n3C)cs2)c1 [Example 356] | 3.8 [a]
Cn1c(/C(=N\OCc2cccc(NC(=O)OCCc3ccc(Br)cc3)n2)c2ccccc2)noc1=O [Example 238] | 4.63 [a]
COC(C)CCOC(=O)Nc1cccc(CO/N=C(/c2ccccc2)c2noc(=O)n2C)n1 (stereo not shown) [compound 429] | 3.37 [a]
Cn1c(/C(=N\OCc2csc(NC(=O)COCc3ccccc3)n2)c2ccccc2)noc1=O [Example 194] | 3.6 [a]
Cn1c(/C(=N\OCc2cccc(NC(=O)COc3cccc(F)c3)n2)c2ccccc2)noc1=O [Example 311] | 3.78 [a]
CC(C)CCCCOC(=O)Nc1cccc(CON=C(c2ccccc2)c2noc(=O)n2C)n1 [compound 506] | 5.17 [a]
CCC#CCOC(=O)Nc1cccc(CON=C(c2ccccc2)c2noc(=O)n2C)n1 [compound 503] | 3.78 [a]
CC/C=C\CCOC(=O)Nc1cccc(CO/N=C(/c2ccccc2)c2noc(=O)n2C)n1 [compound 540] | 4.44 [a]
Cn1c(/C(=N\OCc2cccc(NC(=O)OCCc3ccc(Cl)cc3)n2)c2ccccc2)noc1=O [Example 349] | 4.53 [a]
Cn1c(/C(=N\OCc2csc(NC(=O)SC(C)(C)C)n2)c2ccccc2)noc1=O [Example 539] | 4.04 [a]
Cn1c(/C(=N\OCc2cccc(NC(=O)c3ccc(I)cc3)n2)c2ccccc2)noc1=O [Example 174] | 4.29 [a]
Cn1c(/C(=N\OCc2cccc(NC(=O)OCCBr)n2)c2ccccc2)noc1=O [compound 459] | 3.42 [a]
CC(OCc1ccccc1)C(=O)Nc1cccc(CO/N=C(/c2ccccc2)c2noc(=O)n2C)n1 (stereo not shown) [Example 156] | 4.15 [a]
CCCCSC(=O)Nc1cccc(CO/N=C(/c2ccccc2)c2noc(=O)n2C)n1 [Example 320] | 4.41 [a]

SMILES | LogP
Cn1c(/C(=N\OCc2cccc(NC(=O)OCCC3CCCC3)n2)c2ccccc2)noc1=O [compound 533] | 4.9 [a]
Cn1c(/C(=N\OCc2cccc(NC(=O)OCCCCCl)n2)c2ccccc2)noc1=O [compound 550] | 3.83 [a]
Cn1c(C(=NOCc2cccc(NC(=O)OCCCc3cccnc3)n2)c2ccccc2)noc1=O [compound 497] | 2.11 [a]
CCCCCC(=O)Nc1cccc(CO/N=C(/c2cccc(F)c2F)c2noc(=O)n2C)n1 [Example 464] | 3.92 [a]
Cn1c(/C(=N\OCc2csc(NC(=O)C3COc4ccccc4O3)n2)c2ccccc2Cl)noc1=O (stereo not shown) [Example 442] | 3.73 [a]
Cn1c(/C(=N\OCc2csc(NC(=O)Cc3ccccc3)n2)c2ccccc2Cl)noc1=O [Example 543] | 3.51 [a]
Cn1c(/C(=N\OCc2cccc(NC(=O)OCC3COCO3)n2)c2ccccc2)noc1=O (stereo not shown) [compound 529] | 2.73 [a]
Cn1c(/C(=N\OCc2cccc(NC(=O)OCC3(C)COC3)n2)c2ccccc2)noc1=O [compound 412] | 2.96 [a]
C#CCCCCOC(=O)Nc1cccc(CON=C(c2ccccc2)c2noc(=O)n2C)n1 [compound 484] | 3.78 [a]
Cc1ccc(/C(=N/OCc2csc(N)n2)c2noc(=O)n2C)cc1 [Example 326] | 1.82 [a]
Cn1c(/C(=N\OCc2cccc(NC(=O)OCC(C)(CO)CCl)n2)c2ccccc2)noc1=O (stereo not shown) [compound 424] | 3.19 [a]
CCc1ccccc1OC(=O)Nc1cccc(CO/N=C(/c2ccccc2)c2noc(=O)n2C)n1 [compound 430] | 4.25 [a]
Cc1cccc(C)c1OC(=O)Nc1cccc(CON=C(c2ccccc2)c2noc(=O)n2C)n1 [compound 494] | 4.2 [a]
Cn1c(/C(=N\OCc2cccc(NC(=O)OCCCC(F)(F)F)n2)c2ccccc2)noc1=O [Example 205] | 3.85 [a]
CCCCC(C)(C)OC(=O)Nc1cccc(CO/N=C(/c2ccccc2)c2noc(=O)n2C)n1 [Example 353] | 5.1 [a]
C#CCCOC(=O)Nc1nc(CON=C(c2ccccc2Cl)c2noc(=O)n2C)cs1 [Example 499] | 3.19 [a]
CCCC=CCOC(=O)Nc1cccc(CON=C(c2ccccc2)c2noc(=O)n2C)n1 [compound 507] | 4.56 [a]
Cn1c(C(=NOCc2cccc(NC(=O)OC(C)(C)C)n2)c2cccc(F)c2F)noc1=O [Example 254] | 4.01 [a]
COC(=O)Nc1cccc(CO/N=C(/c2ccccc2)c2noc(=O)n2C)n1 [compound 547] | 2.84 [a]
COc1cccc(COC(=O)Nc2cccc(CO/N=C(/c3ccccc3)c3noc(=O)n3C)n2)c1 [compound 441] | 3.96 [a]
C=CC(=O)OCCOC(=O)Nc1cccc(CO/N=C(/c2ccccc2)c2noc(=O)n2C)n1 [compound 515] | 3.21 [a]
Cc1ccccc1OC(C)C(=O)Nc1cccc(CO/N=C(/c2ccccc2)c2noc(=O)n2C)n1 (stereo not shown) [Example 398] | 4.46 [a]
CC(C)(C)OC(=O)Nc1cccc(CO/N=C(/c2ccccc2)c2noc(=O)[nH]2)n1 [Example 135] | 3.76 [a]
CCCCC(=O)Nc1cccc(CO/N=C(/c2ccccc2F)c2noc(=O)n2C)n1 [Example 480] | 3.44 [a]
